The text below walks through data of patent US9969743B2, “Urea and amide derivatives of aminoalkylpiperazines and use thereof” (Southern Research Institute, priority 2012, dated 2018).

The target of test [1] is human D2 dopamine receptors (HEK cells) (Homo sapiens (Human), UniProt P14416). The test can be described thus: Whole cell adenylyl cyclase assay, D2. The test is classed as cell-based. Particulars: inhibition of forskolin (100 μM) stimulated cAMP, normalized to quinpirole; conc >10× Ki, per compound in Conc (nM); mean ± S.E.M. The procedure:
Functional Activity. Whole cell adenylyl cyclase assay. The intrinsic activity of the compounds was evaluated by determining their ability to inhibit forskolin-dependent (100 μM) stimulation of adenylyl cyclase activity using a whole cell assay. A whole cell-cyclic AMP accumulation assay was performed with stably transfected HEK cells expressing human D2 or D3 dopamine receptors. This assay is an adaptation of an earlier published method (Su et al., Cyclic Nucleotide Res. 1976, 2, 257-285). Details regarding this method have been published (Chu, W. et al. Bioorg. Med. Chem. 2005, 13, 77-87; Taylor, M. et al. Synapse 2010, 64, 251-266). Confluent (60-80%) HEK cells transfected with recombinant D2-like dopamine receptors were grown in DMEM/10% fetal calf serum containing geneticin in […]. The endogenous ATP pool is radioactively labeled by preincubating the cells in serum-free DMEM/25 mM Hepes medium containing 2 μCi/mL of [2,8-^3H]-adenine (20-Ci/mmol) in a 5% CO2 incubator at 37° C. for 75 min. The radioactive medium was removed by aspiration. Serum-free DMEM (5.6 mL) containing 25 mM HEPES, pH 7.4, and 0.1 mM of the phosphodiesterase inhibitor isobutylmethylxanthine was added to the flask. A 400-μL aliquot of cells was removed and added to 50 μL of forskolin (100 μM) and 50 μL of test drug or quinpirole in DMEM-HEPES. The cells were incubated for 20 min at 37° C. (vortexing every 5 min). The reaction was terminated by the addition of 0.5 mL of 10% trichloroacetic acid (w/v) containing 1.0 mM unlabeled cyclic AMP as a recovery standard. Both the [^3H]-cyclic AMP and the [^3H]-ATP fractions were collected following separation using columns of Dowex AG-50W-X4 and alumina. The final yield of [^3H]-cyclic AMP is corrected for column recovery of unlabeled cyclic AMP determined spectrophotometrically (OD259). The results are reported as percent conversion of [^3H]-ATP into [^3H]-cyclic AMP. The values for the percent inhibition are reported as the actual percent of inhibition of the ^3H-cAMP accumulation relative to the assay performed in the absence of a test compound, minus basal activity. […] The percent maximum response is the value for the inhibition normalized to the value for the full agonist quinpirole.

Test [2] deals with human D3 dopamine receptor (Homo sapiens (Human), UniProt P35462). The test can be described thus: Radioligand binding (125I-IABN competition), D3 dopamine receptor. Particulars: for Ki: 125I-IABN competition, membranes of stably transfected HEK cells, 37° C. 60 min, Cheng and Prusoff; for D2/D3 (D3 selectivity ratio, D2 Ki/D3 Ki): calculated from binding Ki values. The procedure: (§1) Binding Affinity. The affinities of the target compounds were determined using radioligand binding experiments.
Sequence of human D3 dopamine receptor (P35462 whole entry): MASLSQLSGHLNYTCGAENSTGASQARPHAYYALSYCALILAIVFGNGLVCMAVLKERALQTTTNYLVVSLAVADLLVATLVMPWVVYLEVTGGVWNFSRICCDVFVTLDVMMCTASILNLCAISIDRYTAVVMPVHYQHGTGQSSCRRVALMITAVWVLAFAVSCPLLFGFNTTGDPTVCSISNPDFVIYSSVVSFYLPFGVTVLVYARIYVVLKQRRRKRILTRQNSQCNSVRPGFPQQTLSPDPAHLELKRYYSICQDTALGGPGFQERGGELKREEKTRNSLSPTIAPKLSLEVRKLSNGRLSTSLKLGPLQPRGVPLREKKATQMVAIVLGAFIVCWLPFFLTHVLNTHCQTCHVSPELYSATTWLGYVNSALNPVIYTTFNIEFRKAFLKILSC
(§2) Competition curves were modeled for a single site. Data from competition dose-response curves were analyzed using Tablecurve program (Jandel). IC50 values were converted to equilibrium dissociation constants (Ki values) using the Cheng and Prusoff correction.

In test [3] the target is human D2-long dopamine receptor (Homo sapiens (Human), UniProt P14416). The test is described as follows: Radioligand binding (125I-IABN competition), D2-long dopamine receptor. To be noted: membranes of stably transfected HEK cells, 37° C. 60 min, Cheng and Prusoff. Here is the method: as §1, §2
Sequence of human D2-long dopamine receptor (P14416 whole entry): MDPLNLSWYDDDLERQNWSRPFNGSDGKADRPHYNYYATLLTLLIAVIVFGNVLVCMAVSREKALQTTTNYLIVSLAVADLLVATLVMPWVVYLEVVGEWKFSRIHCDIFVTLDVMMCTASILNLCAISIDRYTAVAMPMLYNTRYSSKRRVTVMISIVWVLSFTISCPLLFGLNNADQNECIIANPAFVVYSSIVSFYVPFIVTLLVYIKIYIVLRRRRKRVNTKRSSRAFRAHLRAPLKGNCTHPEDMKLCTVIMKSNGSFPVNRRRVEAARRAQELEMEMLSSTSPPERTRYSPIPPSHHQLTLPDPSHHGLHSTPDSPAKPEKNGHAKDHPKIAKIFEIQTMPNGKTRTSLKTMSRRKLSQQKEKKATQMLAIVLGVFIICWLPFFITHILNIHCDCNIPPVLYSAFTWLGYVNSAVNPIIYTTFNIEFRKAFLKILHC

Sequence of human D2 dopamine receptors (HEK cells) (P14416 whole entry): as above

As for `CC(C)(C)c1nc(N2CCN(CCCCNC(=O)N3CCN(c4ccccc4)CC3)CC2)c2ccccc2n1` [Compound 13, N-(4-(4-(2-(tert-Butyl)quinazolin-4-yl)piperazin-1-yl)butyl)-4-phenylpiperazine-1-carboxamide], the “D2 Cyclase % Inhibition Normalized” value in test [1] is reported as “Insoluble”.
The same measure, in the same setting: the same measure for `CC(C)(C)c1nc(N2CCN(CCCCNC(=O)N3CCC(c4ccccc4)CC3)CC2)cc(C(F)(F)F)n1` [Compound 48, N-(4-(4-(2-(tert-Butyl)-6-(trifluoromethyl)pyrimidin-4-yl)piperazin-1-yl)butyl)-4-phenylpiperidine-1-carboxamide]: “Insoluble”.
In general, Ki refers to a measure of affinity in units of concentration, obtained from inhibition or displacement. A lower Ki goes with tighter binding. For the compound `CC(C)(C)c1cc(N2CCN(CCCCNC(=O)N3CCc4c([nH]c5ccccc45)C3)CC2)nc(C(C)(C)C)n1` [Compound 56, N-(4-(4-(2,6-Di-tert-butylpyrimidin-4-yl)piperazin-1yl)butyl)-1,3,4,9-tetrahydro-2H-pyrido[3,4-b]indole-2-carboxamide], in test [2], affinity was put at a Ki of 0.0095 ± 0.0017 µM and the “D2/D3 (D3 selectivity ratio, D2 Ki/D3 Ki)” value was 33. This compound came in with a Ki in test [3] of 0.308 ± 0.0299 µM.
As to `CC(C)(C)c1cc(N2CCN(CCCCNC(=O)N3CCc4c([nH]c5ccccc45)C3)CC2)cc(C(C)(C)C)c1` [Compound 97, N-(4-(4-(3,5-Di-tert-butylphenyl)piperazin-1-yl)butyl)-1,3,4,9-tetrahydro-2H-pyrido[3,4-b]indole-2-carboxamide], in test [2], the Ki is 0.245 ± 0.0464 µM and the “D2/D3 (D3 selectivity ratio, D2 Ki/D3 Ki)” value was 10. Also, the Ki in test [3] was 2.44 ± 0.175 µM.
On to `CC(C)(C)c1nc(C2CC2)cc(N2CCN(CCCCNC(=O)N3CCc4c([nH]c5ccccc45)C3)CC2)n1` [Compound 101, N-(4-(4-(2-(tert-Butyl)-6-cyclopropylpyrimidin-4-yl)piperazin-1-yl)butyl)-1,3,4,9-tetrahydro-2H-pyrido[3,4-b]indole-2-carboxamide], for which the Ki was 0.0571 ± 0.0035 µM in test [2] and 0.789 ± 0.0457 µM in test [3].
As for `CC(C)(C)c1nc(N2CCN(CCCCNC(=O)c3cn4ccncc4n3)CC2)cc(C(F)(F)F)n1` [Compound 115, N-(4-(4-(2-(tert-Butyl)-6-(trifluoromethyl)pyrimidin-4-yl)piperazin-1-yl)butyl)imidazo[1,2-a]pyrazine-2-carboxamide], the “D2 Cyclase % Inhibition Normalized” value in test [1] is listed as “Insoluble”.
For `CC(C)(C)c1nc(N2CCN(CCCCNC(=O)c3cn4nc(Cl)ccc4n3)CC2)cc(C(F)(F)F)n1` [Compound 116, N-(4-(4-(2-(tert-Butyl)-6-(trifluoromethyl)pyrimidin-4-yl)piperazin-1-yl)butyl)-6-chloroimidazo[1,2-b]pyridazine-2-carboxamide], the “D2 Cyclase % Inhibition Normalized” value in test [1] is “Insoluble”.
